Data from patent US20250002854A1, “METHODS OF GENERATING POPULATIONS OF TUMOUR-INFILTRATING T CELLS” (LYTIX BIOPHARMA AS, priority 2016, published 2025).
Square brackets hold non-standard residues; d marks the D form. Ends that are not written are not given here. Dip = N[C@H](C(=O)O)C(c1ccccc1)c1ccccc1

Tests used:
B16F1 cells [1] = experiment: Release of cytochrome c (ELISA); type: cell-based, murine; conditions: 108 μM
Method: B16F1 cells were plated onto 96-well culture plates as previously described above for the MTT assay. Cells were treated with 108 μM (4×IC50^4h) for designated time points (30, 60, 90, 120 and 240 minutes), while control cells were preserved in serum-free RPMI-1640 only until the experimental endpoint. Supernatants were collected and diluted 1/5 in a serum-free RPMI 1640 before being evaluated using a Rat/Mouse Cytochrome c Quantikine ELISA kit (R&D Systems, USA), according to the instructions of the manufacturer. The concentration of cytochrome c was calculated by interpolation values on the provided standard curve.

B16F1 cells [2] = experiment: LysoTracker DND-26, flow cytometry and confocal microscopy; type: cell-based, murine; conditions: 27 μM, 60 minutes
Method: Flow cytometry: B16F1 cells were seeded in 6-well plates and allowed to adhere overnight. […] Untreated cells were used as a control. Cells were trypsinized and investigated on a FACS Calibur Flow cytometer, and the results were processed using FlowJo Software (Tree Star, Inc., Ashland, OR, USA). PI was utilized in some experiments to gate away cells with compromised plasma membrane.
Confocal microscopy: B16F1 cells were seeded in 8-well plates (Nunc) at 1×10^4 cells/well and allowed to adhere overnight. Next, cells were treated with 27 μM of LTX-401 for 60 minutes and labelled with LysoTracker DND-26 for 5 minutes and with Hoecsht33342 for nuclear staining. Cells were immediately investigated on a Zeiss Confocal microscope with a controlled temperature and atmosphere.

A375 cells = experiment: Confocal microscopy, internalization of fluorescence-labeled peptide; type: cell-based, human
Method: The A375 cell line A375 (ECACC, 88113005) is a human malignant melanoma derived from patient material, and was purchased from Public Health England (PHE Culture Collections, Porton Down, Salisbury, UK). Cells were maintained as monolayer cultures in high glucose […] DMEM supplemented with 10% FBS and 1% L-glutamine, but not as antibiotics (complete media). The cell line was grown in a humidified 5% CO2 atmosphere at 37° C., and was regularly tested for the presence of mycoplasma with MycoAlert (Lonza).
Fixed cells, fluorescence-labeled peptide—Subconfluential A375 cells were seeded at 8,000 cells/well as above, and transfected on the second day using the Lipofectamine LTX with Plus transfection reagents (Invitrogen) following the manufacturer's protocol. The mitochondria were labeled using the pDsRed2-Mito, and the nucleus was labeled using the GFP-Histon2B plasmid (Imaging Platform, University of Tromsø). A day after transfection, cells were washed twice with serum-free RPMI, and treated at different concentration and incubation periods with LTX-315 Pacific Blue or LTX-328 Pacific Blue. […] Control cells were treated with unlabeled LTX-315 and also with serum-free RPMI only. After incubation, cells were fixed with 4% paraformaldehyde in PBS, and the wells were covered with Prolong Gold antifade (Invitrogen). Cells were further analyzed by use of a Leica TCS SP5 confocal microscope, with a […] objective. Pacific Blue, GFP and Ds Red were excited using UV, with 488 and 561 lasers, and fluorescence channels were sequentially detected using the following band passes: UV: 420-480 nm (with attenuation), 488: 501-550 nm and 561: 576-676 nm.

MCA205 sarcoma = conditions: mouse, in vivo
Method: Mice were subcutaneously injected into the right flank with 1×10^6 MCA205 cells. Tumour cell lines were inoculated into C57BL/6 mice. Tumour surfaces (longest dimension×perpendicular dimension) were routinely monitored by caliper. When tumours reached a size of 20-25 mm^2 (day 0), mice were administered intratumourally with three consecutive daily injections of 300 μg LTX-315. In T-cell depletion experiments (FIG. 24), anti-CD4 and anti-CD8 monoclonal antibodies (mAbs) (GK1.5 and 53-6.72, respectively; 200 μg per mouse) or their isotype controls (LTF-2 and 2A3, respectively) were injected intraperitoneally 3 and 4 days before the first LTX-315 injection and continued every other 7 days. All mAbs for in vivo use were obtained from BioXcell (West Lebanon, NH, USA), using the recommended isotype control mAbs.
Tumours and spleens were harvested 7 days after the first injection of LTX-315. Excised tumours were cut into small pieces and digested in RPMI-1640 medium containing Liberase at 25 μg/ml (Roche, Boulogne-Billancourt, France) and DNase1 at 150 UI/ml (Roche) for 30 min at 37° C. The mixture was subsequently passaged through a 100 μm cell strainer. […] All cells were analysed on a CyAn ADP (Beckman Coulter, Marseille, France) flow cytometer with FlowJo (Tree Star, Ashland, OR) software.

rat sarcoma model = experiment: Rat sarcoma model with three lesions, tumour growth by live imaging; type: in vivo; conditions: LTX-315 injected into one subcutaneous lesion
[3] = system: tumour tissue sections from patients; experiment: Clinical histology, CD3/CD8 immunostaining of patient tumours; type: in vivo, human
Method: Formalin-fixed and paraffin-embedded tumour tissue sections from patients were deparaffinized in xylene and graded alcohols, hydrated and washed in PBS. After antigen retrieval in sodium citrate buffer (pH 6) in a microwave oven, the endogenous peroxidase was blocked by 0.3% H2O2 for 15 min. Sections were incubated overnight at 4° C. with primary antibody; rabbit polyclonal anti-CD3 (clone A0452 Dako) or mouse monoclonal anti-CD8 (clone OX8, ab33786, Abcam). As a secondary antibody, the anti-rabbit-horseradish peroxidase (HRP) SuperPicTure Polymer detection kit (Invitrogen) or Envision system HRP-anti-mouse (Dako) were used. A matched isotype control was used as a control for nonspecific background staining

| Compound | time at which cytochrome c is present in the supernatant (B16F1 cells [1]) [min] | cytochrome c in supernatant, peak (B16F1 cells [1]; experimental endpoint) | LysoTracker DND-26 signal (B16F1 cells [2]) | accumulation of labelled peptide around the mitochondria (A375 cells; 1.5 μM, 30 minutes) | detection of labelled peptide in the cell nucleus (A375 cells; 1.5 μM, 30 minutes) | internalization of peptide (A375 cells; 3 μM, 60 min) | internalization of Pacific Blue-labelled peptide (A375 cells; A375 cells, 3 μM and 1.5 μM) | cytotoxic CD4+ TILs in tumour beds (IFNγ+, IL-17+, IFNγ+ IL-17+) (MCA205 sarcoma) | cytotoxic CD8+ TILs in tumour beds (IFNγ+, TNFα+, IFNγ+ TNFα+) (MCA205 sarcoma) | effect on lesions (intraperitoneal and two subcutaneous tumours) (rat sarcoma model) | infiltration of CD3+ and CD8+ cells ([3]; breast carcinoma patient) | infiltration of CD3+ and CD8+ cells ([3]; desmoid tumour patient) | infiltration of CD8+ cells ([3]; malignant melanoma patient) | infiltration of CD3+ and CD8+ cells ([3]; metastatic melanoma patient) | infiltration of CD3+ and CD8+ cells ([3]; myo-epithelioma patient) |
| --- | --- | --- | --- | --- | --- | --- | --- | --- | --- | --- | --- | --- | --- | --- | --- |
| Cl.Cl.NCCNC(=O)C(CN)(CCCc1ccccc1)CCCc1ccccc1 [LTX-401] | 120 | approximately 40 ng/ml | induced a decreased signal | – | – | – | – | – | – | – | – | – | – | – | – |
| K-K-W-W-K-K-W-Dip-K-NH2 (KKWWKKW[Dip]K-NH2) [LTX-315] | – | – | – | showed an accumulation around the mitochondria | not detected in the cell nucleus | detected in the cytoplasm | rapidly penetrated the plasma membrane | markedly increased | markedly increased | eradicated all three lesions | infiltration of CD3^+ positive cells | infiltration of CD3^+ positive cells | infiltration of CD8^+ positive cells | infiltration of CD3^+ positive cells | infiltration of CD3^+ positive cells |
